Laboratory results taken from US12435377B2, “Cancers with loss of chromosome 16Q and/or low expression of metallothionein proteins” (THE BROAD INSTITUTE, INC., priority 2018, dated 2025).
Like-named read-outs stand apart in the source and are kept apart here.

Experiments:
G401 cells [1] = test: CellTiter-Glo cellular viability assay, dose-response curves (FIG. 5B)
Procedure: (§2) Cell viability was assayed using a modified manufacturer's protocol for CellTiter-Glo® (Promega #G7573). Cells were seeded at a density of 2000 cells per well in a 96 well black, clear bottom plate (Corning #89091-012) in 100 uL total media per well. The following day different concentrations of compounds at various doses were printed in triplicate in a random well format using the Tecan D300e Digital Dispenser. After 120H, 60 μL of a 1:3 solution of CellTiterGlo reagent in 1×PBS (Corning #01018002) was added per well and allowed to incubate at RT for 10 mins. Luminescence was measured with an integration time of 0.1 s using Envision Microplates Reader (PERKIN ELMER #2105-0010). Biological replicates were averaged and normalized to vehicle control. Dose curves were generated using Graphpad Prism.

[2] = tested on: biomarker-presenting cell lines; test: Cytotoxicity of disulfiram metabolites to biomarker-presenting cell lines; assay type: cell-based; conditions: compared with the cytotoxicity of disulfiram (DSF)
Description: (§1) Biological replicates were averaged and normalized to vehicle control. Dose curves were generated using Graphpad Prism.

SH10TC cells [3] = test: CellTiter-Glo cellular viability assay, dose-response curves (FIG. 5B)
Procedure: as §2

[4] = tested on: PRISM cancer cell lines stratified by chromosome 16q status; test: PRISM multiplexed cellular viability assay (drug repurposing library); assay type: cell-based, human; conditions: for cell killing profile: PRISM screen, compared with other compounds of the drug repurposing library
Procedure: Parental cell lines were obtained from the Cancer Cell Line Encyclopedia (CCLE) project (1). PRISM cell line barcoding, pooling, and screening was performed as previously described with several improvements to the original method (2). First, the lentiviral vector was modified to encode the unique barcode identifier at the end of the puromycin resistance gene. This enables barcodes to be detected using a variant of the mRNA capture and Luminex detection method developed for the L1000 gene expression assay (3). Second, a set of ten inert barcodes were spiked-in to each well of each plate after cell lysis to control for variation in PCR amplification as detailed below.
MFI values were log-transformed (log MFI) and used to perform basic quality control. To detect probable screening artifacts, log MFI values were centered to the median log MFI for each cell line on each plate in order to put the measurements from each cell line on the same scale. For each well on each plate, the median of these centered values was then standardized according to the global median and global MAD across all plate wells in the same position. Data from wells with a standardized score of greater than 5 or less than −5 were excluded from all further processing steps.
Cell viability was calculated as the ratio of nMFI to the median of the nMFI from the DMSO-treated negative controls for each cell line on each plate. Batch effects produced from variable detection and assay conditions were then removed using ComBat (4). The final viability values were calculated as the median of the batch-corrected cell viabilities from biological replicates for each cell line, compound and dose.
Measures of dose response were obtained by fitting 3-parameter logistic curves to viability values for each compound and cell line using the R package ‘dre’. Following the practice of Smirnov and Safikhani (5), viability was truncated at 1.0 and fit as a function of drug concentration according to: […]
[formula] The Area Under the dose response Curve (AUC) was calculated using the normalized integral: […]

metastatic melanoma = conditions: cited from earlier work
SF295 cells = test: Viability of SF295 cells with or without CRISPR-Cas9 MTF1 knockout (FIG. 7); assay type: cell-based; conditions: MTF1 sg1 and MTF1 sg2 versus control guide GFP sg1
Description: XP003, XP023, psPAX, and pMD2.G vectors were acquired from the Broad Genetic Perturbation Platform (GPP). Oligos for sgRNAs designs were generated using Broad GPP sgRNA guide generator resource (broad institute.org/gpp/db/analysis-tools/sgrna-design) and the respective oligos were synthesized by Integrated DNA Technologies. In order to clone the sgRNAs into either the XPR003 guide only or XPRO23 all-in-one crispr lentiviral expression systems the protocol available on the Broad GPP website (broadinstitute.org/gpp/db/resources/protocols) was followed.
A mixture of 3E6 cells, virus, and media with 4 μg/mL polybrene (Millipore) at a total volume of 2 mL was plated per well of a 12 well plate. Cells were centrifuged at 2000 RPM for 2 hours at 30° C. After removal from incubator, 2 mL of fresh media was added to each well and cells were allowed to incubate at 37° C. overnight. The following day cells were selected for with puromycin for 3-10 days, or until the non-infected control cell were completely non-viable.
as §1

G401 cells [5] = tested on: G401 cells
Procedure: as §2

SH10TC cells [6] = tested on: SH10TC cells
Procedure: as §2

[7] = in chloroform, acetone and ether; cited from earlier work
[8] = cited from earlier work
[9] = order paclitaxel, elesclomol, disulfiram/thiram, DDC

Compound | cytotoxic activity (dose-response) (G401 cells [1]) | biomarker-predicted cytotoxic activity [2] | cytotoxic activity (dose-response) (SH10TC cells [3]) | also measured
CCN(CC)C(=S)S [DDC, Diethyldithiocarbamic acid] | active | retain the cytotoxicity | active | rank of cytotoxicity IC50 among active agents (G401 cells [1]; [9]): highest IC50 value among those compounds that exhibited activity; rank of cytotoxicity IC50 among active agents (SH10TC cells [3]; [9]): highest IC50 value among those compounds that exhibited activity
CCN(CC)C(=S)SSC(=S)N(CC)CC [disulfiram, Disulfiram] | active |  | active | disulfiram cytotoxicity (linear AUC) versus chromosome 16q status ([4]; Mann-Whitney U test, cell lines binned as 16q loss, normal, gain, 480 cell lines): strongly correlated with 16q loss
CN(NC(=O)CC(=O)NN(C)C(=S)c1ccccc1)C(=S)c1ccccc1 [elesclomol, Elesclomol] | active |  | active | progression-free survival (metastatic melanoma; phase III study, combined with paclitaxel, halted in 2013): did not significantly increase progression-free survival; progression-free survival (metastatic melanoma; small randomized phase II study, given in addition to paclitaxel): significantly increase progression-free survival; effect of MTF1 knockout on sensitivity of SF295 cells (SF295 cells): sensitized; cell killing profile [4]: shared cell killing profile specific for cancer cell lines having 16q loss
CCN(CC)C(=S)SC [methyl DDC, Methyl diethyldithiocarbamate] | inactive | not observed to be cytotoxic | inactive | 
CC(=O)O[C@H]1C(=O)[C@@]2(C)[C@H]([C@H](OC(=O)c3ccccc3)[C@]3(O)C[C@H](OC(=O)[C@H](O)[C@@H](NC(=O)c4ccccc4)c4ccccc4)C(C)=C1C3(C)C)[C@]1(OC(C)=O)CO[C@@H]1C[C@@H]2O [paclitaxel] | active |  | active | rank of cytotoxicity IC50 among active agents (G401 cells [5]): lowest IC50 value; rank of cytotoxicity IC50 among active agents (SH10TC cells [6]): lowest IC50 value
CN(C)C(=S)SSC(=S)N(C)C [thiram, Thiram] | active |  | active | solubility [7]: dissolve completely; toxicity ([8]; by ingestion): moderately toxic; toxicity ([8]; if inhaled): highly toxic; cell killing profile [4]: shared cell killing profile specific for cancer cell lines having 16q loss
copper(II) diethyldithiocarbamate [Cu-DDC] |  | retain the cytotoxicity |  | 
